Assay results from ChEMBL document CHEMBL1157330, “Diplobifuranylones A and B, 5'-monosubstituted tetrahydro-2H-bifuranyl-5-ones produced by Diplodia corticola, a fungus pathogen of cork oak” (J Nat Prod, 2006).

Tested on: Solanum lycopersicum
Assay: Phytotoxicity against Lycopersicon esculentum L. var. Marmande at 0.05 to 0.1 mg/mL by tomato cutting assay
Format: organism-based
Details: in vivo

| SMILES | Activity |
| --- | --- |
| C[C@H](O)[C@@H]1C=CC(C2CCC(=O)O2)O1 (some centres not stated) [DIPLOBIFURANYLONE A] | Non-toxic |
| C[C@H](O)[C@H]1C=CC(C2CCC(=O)O2)O1 (some centres not stated) [DIPLOBIFURANYLONE B] | Non-toxic |
